Results as given in patent publication US11051515B2, “3-acyl-benzamides and their use as herbicides” (Bayer Aktiengesellschaft, priority 2017, dated 2021).

Legend:
VIOTR [1] = experiment: Pre-emergence action against VIOTR; type: in vivo, Viola tricolor; conditions: Dosage 320 g/ha, pre-emergence
How it was run: (§1)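 Seeds sown in sandy loam in wood-fiber pots and covered with soil. Greenhouse growth; visual damage scored after 3 weeks versus untreated controls (100% = dead, 0% = like control).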

PHBPU [2] = experiment: Pre-emergence action against PHBPU; type: in vivo, Pharbitis purpurea; conditions: Dosage 320 g/ha, pre-emergence
How it was run: as §1

SETVI [3] = experiment: Post-emergence action against SETVI; type: in vivo, Setaria viridis; conditions: post-emergence, dosage 80 g/ha, visual assessment about 3 weeks after treatment vs untreated controls
How it was run: (§2)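 Post-emergence foliar spray on greenhouse plants at the one-leaf stage, using wettable-powder or emulsion-concentrate formulations in water (600 to […], plus 0.2% wetting agent). Damage scored by eye roughly 3 weeks later against untreated plants: 0% = like control, 100% = dead.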

ALOMY [4] = experiment: Post-emergence action against ALOMY; type: in vivo, Alopecurus myosuroides; conditions: Dosage 80 g/ha, post-emergence
Experimental: Seeds of monocotyledonous and dicotyledonous weed and crop plants are laid out in sandy loam soil in wood-fiber pots, covered with soil and cultivated in a greenhouse under good growth conditions. 2 to 3 weeks after sowing, the test plants are treated at the one-leaf stage. The compounds of the invention, formulated in the form of wettable powders (WP) or as emulsion concentrates (EC), are then sprayed onto the green parts of the plants in the form of an aqueous suspension or emulsion at a water application rate equating to […], with addition of 0.2% wetting agent. After the test plants have been left to stand in the greenhouse under optimal growth conditions for about 3 weeks, the action of the preparations is assessed visually in comparison to untreated controls (herbicidal action in percent (%): 100% activity=the plants have died, 0% activity=like control plants). […] At the same time, inventive compounds leave Gramineae crops such as barley, wheat, rye, millet/Sorghum, corn or rice virtually undamaged when applied post-emergence, even at high active ingredient dosages. In addition, some substances are also harmless to dicotyledonous crops such as soya, cotton, oilseed rape, sugar beet or potatoes. Some of the compounds according to the invention have high selectivity and are therefore suitable for controlling unwanted vegetation in agricultural crops by the post-emergence method. The data of Tables B18 to B34 below illustrate, in an exemplary manner, the […] herbicidal action of the compounds according to the invention, the herbicidal activity being stated in percent.

AVEFA [5] = experiment: Pre-emergence action against AVEFA; type: in vivo, Avena fatua; conditions: dosage 320 g/ha, scored visually after 3 weeks vs untreated controls
How it was run: as §1

AMARE [6] = experiment: Pre-emergence action against AMARE; type: in vivo, Amaranthus retroflexus; conditions: pre-emergence, dosage 320 g/ha, scored visually after 3 weeks vs untreated controls
How it was run: as §1

AMARE [7] = experiment: Post-emergence action against AMARE; type: in vivo, Amaranthus retroflexus; conditions: post-emergence, dosage 80 g/ha, visual assessment about 3 weeks after treatment vs untreated controls
How it was run: as §2

ECHCG [8] = experiment: Post-emergence action against ECHCG; type: in vivo, Echinochloa crus-galli; conditions: post-emergence, dosage 80 g/ha, visual assessment about 3 weeks after treatment vs untreated controls
How it was run: as §2

PHBPU [9] = experiment: Post-emergence action against PHBPU; type: in vivo, Pharbitis purpurea; conditions: post-emergence, dosage 80 g/ha
How it was run: as §2

MATIN [10] = experiment: Pre-emergence action against MATIN; type: in vivo, Matricaria inodora; conditions: Dosage 320 g/ha, pre-emergence
How it was run: as §1

SETVI [11] = experiment: Pre-emergence action against SETVI; type: in vivo, Setaria viridis; conditions: pre-emergence, dosage 320 g/ha, scored visually after 3 weeks vs untreated controls
How it was run: as §1

ALOMY [12] = experiment: Pre-emergence action against ALOMY; type: in vivo, Alopecurus myosuroides; conditions: dosage 320 g/ha; pre-emergence; scored visually after 3 weeks vs untreated controls; 100% = plants have died, 0% = like control plants
How it was run: as §1

CYPES [13] = experiment: Post-emergence action against CYPES; type: in vivo, Cyperus esculentus; conditions: post-emergence, dosage 80 g/ha, visual assessment about 3 weeks after treatment vs untreated controls
How it was run: as §2

VIOTR [14] = experiment: Post-emergence action against VIOTR; type: in vivo, Viola tricolor; conditions: post-emergence, dosage 80 g/ha
How it was run: as §2

MATIN [15] = experiment: Post-emergence action against MATIN; type: in vivo, Matricaria inodora; conditions: post-emergence, dosage 80 g/ha, visual assessment about 3 weeks after treatment vs untreated controls
How it was run: as §2

VERPE [16] = experiment: Post-emergence action against VERPE; type: in vivo, Veronica persica; conditions: dosage 80 g/ha
How it was run: as §2

ECHCG [17] = experiment: Pre-emergence action against ECHCG; type: in vivo, Echinochloa crus-galli; conditions: pre-emergence, dosage 320 g/ha, scored visually after 3 weeks vs untreated controls
How it was run: as §1

VERPE [18] = experiment: Pre-emergence action against VERPE; type: in vivo, Veronica persica; conditions: Dosage 320 g/ha, pre-emergence
How it was run: as §1

AVEFA [19] = experiment: Post-emergence action against AVEFA; type: in vivo, Avena fatua; conditions: post-emergence, dosage 80 g/ha, visual assessment about 3 weeks after treatment vs untreated controls
How it was run: as §2

STEME [20] = experiment: Post-emergence action against STEME; type: in vivo, Stellaria media; conditions: post-emergence, dosage 80 g/ha
How it was run: as §2

STEME [21] = experiment: Pre-emergence action against STEME; type: in vivo, Stellaria media; conditions: Dosage 320 g/ha, pre-emergence
How it was run: as §1

ABUTH [22] = experiment: Post-emergence action against ABUTH; type: in vivo, Abutilon theophrasti; conditions: post-emergence, dosage 80 g/ha, visual assessment about 3 weeks after treatment vs untreated controls
How it was run: as §2

POLCO = experiment: Pre-emergence action against POLCO; type: in vivo, Polygonum convolvulus; conditions: Dosage 320 g/ha, pre-emergence
How it was run: as §1

ABUTH [23] = experiment: Pre-emergence action against ABUTH; type: in vivo, Abutilon theophrasti; conditions: pre-emergence, dosage 320 g/ha, scored visually after 3 weeks vs untreated controls
How it was run: as §1

CYPES [24] = experiment: Pre-emergence action against CYPES; type: in vivo, Cyperus esculentus; conditions: pre-emergence, dosage 320 g/ha, scored visually after 3 weeks vs untreated controls
How it was run: as §1

## CCn1nnnc1NC(=O)c1ccc(SC)c(C(C)=O)c1Cl [2-121]
VIOTR [1]
  Pre-emergence action against VIOTR: 100%
PHBPU [2]
  Pre-emergence action against PHBPU: 80%
SETVI [3]
  Post-emergence action against SETVI (herbicidal action in percent): 90%
ALOMY [4]
  Post-emergence action against ALOMY: 80%
AVEFA [5]
  Pre-emergence action against AVEFA (herbicidal activity): 90%
AMARE [6]
  Pre-emergence action against AMARE (herbicidal activity): 100%
AMARE [7]
  Post-emergence action against AMARE (herbicidal action in percent): 100%
ECHCG [8]
  Post-emergence action against ECHCG (herbicidal action in percent): 100%
PHBPU [9]
  Post-emergence action against PHBPU: 90
MATIN [10]
  Pre-emergence action against MATIN: 100%
SETVI [11]
  SETVI (Table B8, pre-emergence herbicidal activity): 90%
ALOMY [12]
  Pre-emergence action against ALOMY (herbicidal activity in percent): 90%
CYPES [13]
  Post-emergence action against CYPES (herbicidal action in percent): 80%
VIOTR [14]
  Post-emergence action against VIOTR: 100
MATIN [15]
  Post-emergence action against MATIN (herbicidal action in percent): 100%
VERPE [16]
  Post-emergence action against VERPE: 100
ECHCG [17]
  Pre-emergence action against ECHCG (herbicidal activity): 100%
VERPE [18]
  Pre-emergence action against VERPE: 100%
AVEFA [19]
  Post-emergence action against AVEFA (herbicidal action in percent): 80%
STEME [20]
  Post-emergence action against STEME: 90
STEME [21]
  Pre-emergence action against STEME: 90%
ABUTH [22]
  Post-emergence action against ABUTH (herbicidal action in percent): 100%
POLCO
  Pre-emergence action against POLCO: 100%
ABUTH [23]
  Pre-emergence action against ABUTH (herbicidal activity): 100%
CYPES [24]
  Pre-emergence action against CYPES (herbicidal activity): 90%
